The target of the assay is Fibroblast growth factor 22 (Homo sapiens) (UniProt Q9HCT0). Briefly: FGF22 ligand-induced thermal stabilization – biophysical, thermal shift, cherry-pick, FGF22 synaptogenesis inhibitor project, dose response (AID 687022). Conditions: recombinant FGF22 thermal shift, SYPRO orange melting.

Activity calls are given as the source filed them.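 The calls were made as follows: active = Fitted curve of melting temperature shift crosses the 1.0 threshold at or below the sample's highest valid tested concentration; inconclusive = Flat fit with activity 30 to 70, or invalid fit; inactive = Opposite direction, flat within 30, or no crossing.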

Fibroblast growth factor 22 (Homo sapiens), sequence (Q9HCT0 whole entry, looked up): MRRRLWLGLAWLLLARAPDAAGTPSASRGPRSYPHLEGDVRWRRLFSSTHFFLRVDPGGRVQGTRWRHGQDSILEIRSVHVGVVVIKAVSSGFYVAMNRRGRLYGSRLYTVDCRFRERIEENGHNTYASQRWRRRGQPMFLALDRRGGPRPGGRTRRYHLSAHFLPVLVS

As for `Cn1c(=O)c2c(-c3ccccc3)n(-c3cc(Cl)c([N+](=O)[O-])cc3O)cc2n(C)c1=O`, the AbsAC1 (concentration giving Tm-shift threshold 1.0) was 2.38 µM.
`C=C1[C@@H](O)[C@H](Cc2ccccc2)N(Cc2ccccc2Br)S1(=O)=O`: the AbsAC1 (concentration giving Tm-shift threshold 1.0) was 15.5 µM.
For `O=C(N/N=C/c1ccc(OCc2ccccc2)cc1)c1ccc(O)cc1` the value was 3.59 µM.
For the compound `Oc1ccc(-c2csc(Nc3ccccn3)n2)c(O)c1`, the AbsAC1 (concentration giving Tm-shift threshold 1.0) is 5.13 µM.
On to `COc1ccccc1-c1ccc2c(c1)O[C@@H](CN(C)C(=O)Nc1cccc(F)c1)[C@H](C)CN([C@@H](C)CO)S2(=O)=O`, for which the AbsAC1 (concentration giving Tm-shift threshold 1.0) is 20.6 µM.
In the case of `NC(=O)c1ccsc1NC(=O)COC(=O)CCCOc1ccccc1`, the AbsAC1 (concentration giving Tm-shift threshold 1.0) was 5.37 µM.
Consider `COc1ccc(/C(=N\Nc2ccccc2C(=O)O)c2ccccc2)cc1`, for which the AbsAC1 (concentration giving Tm-shift threshold 1.0) was > 19.5 µM (inactive).
For `CC(=O)Nc1ccc(S(=O)(=O)NCCc2c[nH]c3ccc(C)cc23)cc1` the value was 21.6 µM.
As for `CC(C)Oc1ccc(F)cc1-c1cc(C(=O)NCc2cccs2)[nH]n1`, the figure is 8.55 µM; as for `CCc1nnc(NS(=O)(=O)c2ccc(NC(=O)c3ccc(Br)cc3)cc2)s1`, 5.81 µM; as for `O=C(O)Cc1ccc(NC(=O)c2ccc(Cl)c(Cl)c2)cc1`, 4.5 µM.
Regarding `Cc1nn(-c2ccccc2)c(C)c1/C=N/NC(=O)c1cc(-c2cccs2)[nH]n1`, the AbsAC1 (concentration giving Tm-shift threshold 1.0) is 8.19 µM.
In the case of `CC1([N+](=O)[O-])COP(=O)(NC2CC2)OC1` (centres undefined), the AbsAC1 (concentration giving Tm-shift threshold 1.0) was 8.33 µM.
Consider `COc1ccc(-c2cn(CC[C@@H]3CC[C@@H](NC(=O)Nc4ccc(F)cc4)[C@H](CO)O3)nn2)cc1`, for which the AbsAC1 (concentration giving Tm-shift threshold 1.0) is 12.8 µM.
Regarding `COc1ccc(NC(=O)CN(C)C(=O)c2cn(-c3ccccc3)nc2-c2cccnc2)cc1`, the AbsAC1 (concentration giving Tm-shift threshold 1.0) was > 38 µM (inactive).
Take `Nc1ccc(C(=O)N/N=C/c2c[nH]c3ccccc23)cc1`: the AbsAC1 (concentration giving Tm-shift threshold 1.0) is 3.41 µM.
With `O=C(Nc1ccc(Cl)cc1)N[C@@H]1CC[C@@H](CCNS(=O)(=O)c2ccccc2F)O[C@H]1CO`, the AbsAC1 (concentration giving Tm-shift threshold 1.0) was 5.88 µM.
In the case of `COc1ccccc1NC(=O)N[C@H]1CC[C@H](CCn2cc(-c3ccccc3OC)nn2)O[C@H]1CO`, the AbsAC1 (concentration giving Tm-shift threshold 1.0) was 4.01 µM.
For the compound `CC(C)(C)[S@@](=O)N1Cc2cc(C(=O)NCc3ccccc3F)nc(-c3cccc(-c4ccncc4)c3)c2[C@H]1CCO`, the AbsAC1 (concentration giving Tm-shift threshold 1.0) was > 38 µM (inactive).
For `COc1cc2cc(NC(C)=O)cc(NCc3ccccc3)c2cc1OC` the value was 8.13 µM; for `O=C(Nc1ccc(S(=O)(=O)N2CCCC2)cc1)c1ccccc1`, 8.57 µM; for `CCCCNC(=O)c1onc(CSc2ccc(F)c(F)c2)c1C(=O)NCCCC`, 0.929 µM.
As for `Cc1ccc(S(=O)(=O)N(C)C[C@@H]2Oc3cc(Br)ccc3S(=O)(=O)N([C@@H](C)CO)C[C@H]2C)cc1`, the figure is 29.2 µM.
`COc1cccc(NC(=O)N(C)C[C@@H]2Oc3cc(-c4ccccc4F)ccc3S(=O)(=O)N([C@H](C)CO)C[C@@H]2C)c1`: the AbsAC1 (concentration giving Tm-shift threshold 1.0) is 2.04 µM.
As for `COc1ccc(NS(=O)(=O)c2ccc(Cl)c(N)c2)cc1Br`, the figure is 4.09 µM; as for `COc1cccc(NC(=O)N(C)C[C@H]2Oc3cc(-c4ccccc4F)ccc3S(=O)(=O)N([C@H](C)CO)C[C@@H]2C)c1`, 8.76 µM.
Take `Cc1ccc(CCNc2ncnc(Cl)c2N)cc1`: the AbsAC1 (concentration giving Tm-shift threshold 1.0) is 6.55 µM.
As to `CCN1C/C(=C/c2cccs2)c2nc3ccccc3c(C(=O)O)c2C1`, the AbsAC1 (concentration giving Tm-shift threshold 1.0) was 3.02 µM.
Turning to `Cc1ccc(NC(=O)c2ccc(OCc3c(C)noc3C)cc2)c(C)c1`, the AbsAC1 (concentration giving Tm-shift threshold 1.0) was 2.58 µM.
For `NS(=O)(=O)c1cccc(NC(=O)COC(=O)c2cc([N+](=O)[O-])ccc2N2CCCC2)c1` the value was 5.86 µM; for `COc1ccc(NS(=O)(=O)c2cccc(C(=O)NNC(=O)c3ccccc3O)c2)cc1`, 10.4 µM.
As for `C/C=C/c1ccc2c(c1)O[C@@H](CN(C)C(=O)Nc1ccc(F)cc1)[C@@H](C)CN([C@H](C)CO)S2(=O)=O`, the AbsAC1 (concentration giving Tm-shift threshold 1.0) is 14.8 µM.
For `Oc1cc(O)cc(C=Cc2ccc(O)c(O)c2)c1` the value was 11.9 µM.
On to `COc1ccc(NC(=O)c2[nH]ncc2[N+](=O)[O-])cc1`, for which the AbsAC1 (concentration giving Tm-shift threshold 1.0) is 17.9 µM.
As to `O=C(Nc1ccc(S(=O)(=O)N2CCOCC2)cc1)c1ccc(F)cc1`, the AbsAC1 (concentration giving Tm-shift threshold 1.0) was 12.7 µM.
For the compound `O=C(N/N=C/c1c[nH]c2ccc(Br)cc12)c1ccc2c(c1)OCO2`, the AbsAC1 (concentration giving Tm-shift threshold 1.0) was 14.3 µM.
Take `CC(=O)c1ccc(OCCCC(=O)Nc2ccc(S(=O)(=O)N3CCOCC3)cc2)cc1`: the AbsAC1 (concentration giving Tm-shift threshold 1.0) is > 38 µM (inactive).
In the case of `O=C(CCc1ccc(O)cc1)c1c(O)cc(O)cc1O`, the AbsAC1 (concentration giving Tm-shift threshold 1.0) is 1.74 µM.
Take `Cc1cccc(NC(=O)Nc2ccc(S(N)(=O)=O)cc2)c1`: the AbsAC1 (concentration giving Tm-shift threshold 1.0) is 4.36 µM.
As for `CC1(C)CCC(=O)N2CC[C@H]3C[C@H](OC(=O)Nc4ccccc4)C[C@@H]1[C@H]32`, the figure is 12 µM; as for `COc1ccc(C)cc1NS(=O)(=O)c1ccc(NS(=O)(=O)c2ccc(NC(C)=O)cc2)cc1`, 3.7 µM; as for `CCc1ccc(N2CC(C(=O)OCC(=O)Nc3ccc(C#N)cc3)CC2=O)cc1` (centres undefined), 20.8 µM.
Take `N#Cc1ccc(NC(=O)Nc2cccc(C#N)c2)cc1`: the AbsAC1 (concentration giving Tm-shift threshold 1.0) is 4.49 µM.
For `O=C(N/N=C/c1ccc([N+](=O)[O-])cc1)c1c[nH]c2ccccc12` the value was 20 µM; for `CC1CCN(Cc2c(C(=O)N/N=C/c3ccc(OC(C)C)cc3)nnn2-c2nonc2N)CC1`, 14 µM; for `COc1ccc(C(=O)Nc2nc(CC(=O)NCCc3ccccc3)cs2)cc1`, 11.3 µM.
In the case of `O=C(N/N=C/c1ccncc1)c1cccc(NC(=O)c2ccc(Cl)cc2)c1`, the AbsAC1 (concentration giving Tm-shift threshold 1.0) was 9.27 µM.
With `COc1cccc(NC(=O)CN(C)C(=O)c2ccc(NC3CC3)c([N+](=O)[O-])c2)c1`, the AbsAC1 (concentration giving Tm-shift threshold 1.0) is 5.08 µM.
`C[C@@H]1CN([C@@H](C)CO)C(=O)Cc2cc(NC(=O)C3CC3)ccc2O[C@H]1CN(C)Cc1ccc(Cl)c(Cl)c1`: the AbsAC1 (concentration giving Tm-shift threshold 1.0) was 16.7 µM.
`O=C(Nc1ccc(C(=O)O)cc1)Nc1ccc([N+](=O)[O-])cc1`: the AbsAC1 (concentration giving Tm-shift threshold 1.0) is 5.57 µM.
`N#CC(C#N)=C1NC(N)=C(C#N)C(c2ccccc2)=C1C#N`: the AbsAC1 (concentration giving Tm-shift threshold 1.0) was 4.02 µM.
Consider `O=C(C[C@@H]1CC[C@H]2[C@@H](COC[C@@H](O)CN2S(=O)(=O)c2cccc(F)c2)O1)Nc1ccccc1`, for which the AbsAC1 (concentration giving Tm-shift threshold 1.0) is 3.53 µM.
Consider `O=C(CN1C(=O)NC2(CCOc3ccccc32)C1=O)Nc1ccc(Br)cc1F` (centres undefined), for which the AbsAC1 (concentration giving Tm-shift threshold 1.0) was 16.6 µM.
For `COC(=O)C[C@H]1CC[C@@H]2[C@@H](COc3ccc(NC(=O)Nc4cccc(C#N)c4)cc3C(=O)N2C)O1` the value was 7.79 µM.
